Assays:
Test in all cases: relative viability (nuclei count vs DMSO), 5 days (fraction); higher = more cells survive
Halofuginone + Foretinib = compound: O=C(C[C@H]1NCCC[C@@H]1O)Cn1cnc2cc(Br)c(Cl)cc2c1=O (racemic) [Halofuginone] + COc1cc2c(Oc3ccc(NC(=O)C4(C(=O)Nc5ccc(F)cc5)CC4)cc3F)ccnc2cc1OCCCN1CCOCC1 [Foretinib] (partner 0.25 µM)
Method in brief: (§1)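 Values are medians from duplicate plates. Each reflects relative viability, defined as the nuclei count of treated wells over that of vehicle wells. Lung cancer cell lines in 1536-well plates were pin-tool dosed one day after seeding with one drug alone or with a fixed anchor-drug dose plus five library-drug doses (not always all listed) in √10 steps, then fixed, stained and imaged at 4× after 5 days.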

Decitabine + Alpelisib = compound: Nc1ncn([C@H]2C[C@H](O)[C@@H](CO)O2)c(=O)n1 [Decitabine] + Cc1nc(NC(=O)N2CCC[C@H]2C(N)=O)sc1-c1ccnc(C(C)(C)C(F)(F)F)c1 [Alpelisib] (partner 2 µM)
Method in brief: as §1

[1] = compound: O=C(C[C@H]1NCCC[C@@H]1O)Cn1cnc2cc(Br)c(Cl)cc2c1=O (racemic) [Halofuginone] + O=C(CCCCCCC(=O)Nc1ccccc1)NO [Vorinostat] (partner 1 µM)
Method in brief: as §1

Decitabine + Navitoclax = compound: Nc1ncn([C@H]2C[C@H](O)[C@@H](CO)O2)c(=O)n1 [Decitabine] + CC1(C)CCC(c2ccc(Cl)cc2)=C(CN2CCN(c3ccc(C(=O)NS(=O)(=O)c4ccc(N[C@H](CCN5CCOCC5)CSc5ccccc5)c(S(=O)(=O)C(F)(F)F)c4)cc3)CC2)C1 [Navitoclax] (partner 0.5 µM)
Method in brief: as §1

Cell Line	relative viability (Halofuginone + Foretinib; first compound 0.001 µM)	relative viability (Halofuginone + Foretinib; first compound 0.003162 µM)	relative viability (Halofuginone + Foretinib; first compound 0.01 µM)	relative viability (Halofuginone + Foretinib; first compound 0.03162 µM)	relative viability (Halofuginone + Foretinib; first compound 0.1 µM)	relative viability (Decitabine + Alpelisib; first compound 0.1265 µM)	relative viability (Decitabine + Alpelisib; first compound 0.4 µM)	relative viability (Decitabine + Alpelisib; first compound 1.265 µM)	relative viability (Decitabine + Alpelisib; first compound 4 µM)	relative viability ([1]; first compound 0.001 µM)	relative viability ([1]; first compound 0.003162 µM)	relative viability ([1]; first compound 0.01 µM)	relative viability ([1]; first compound 0.03162 µM)	relative viability ([1]; first compound 0.1 µM)	relative viability (Decitabine + Navitoclax; first compound 0.1265 µM)	relative viability (Decitabine + Navitoclax; first compound 0.4 µM)	relative viability (Decitabine + Navitoclax; first compound 1.265 µM)	relative viability (Decitabine + Navitoclax; first compound 4 µM)	relative viability (Decitabine + Alpelisib; first compound 0.04 µM)	relative viability (Decitabine + Navitoclax; first compound 0.04 µM)
NCI-H1623	0.888	0.895	0.954	0.876	0.536	–	–	–	–	–	–	–	–	–	–	–	–	–	–	–
HCC-827	1.03	0.974	0.962	1.1	0.947	0.426	0.356	0.279	0.311	0.764	0.777	0.795	0.869	0.87	0.471	0.404	0.269	0.939	–	–
NCI-H322M	0.896	0.948	0.913	0.833	0.374	0.613	0.71	0.498	0.403	0.935	0.967	0.811	0.865	0.561	0.892	0.777	0.505	0.509	0.659	0.841
ChaGo-K-1	0.999	0.915	0.93	0.881	0.786	–	–	–	–	0.725	0.766	0.755	0.726	0.746	0.762	0.479	0.611	0.565	–	0.681
BEN	0.71	0.815	0.889	0.646	0.242	0.908	0.651	0.564	0.426	0.55	0.541	0.55	0.587	0.572	0.0587	0.0516	0.0522	0.0591	0.943	0.0613
NCI-H2347	1.35	0.929	0.994	0.841	1	0.848	0.675	0.597	0.665	0.769	0.561	0.55	0.611	0.395	0.543	0.425	0.385	0.348	0.898	0.792
LOU-NH91	0.985	0.917	0.887	0.925	0.949	0.673	0.688	0.592	0.61	0.929	0.955	0.898	0.907	0.779	0.645	0.503	0.458	0.525	0.484	0.372
NCI-H2228	0.908	1.08	0.777	0.325	0.146	0.41	0.453	0.298	0.201	0.822	0.807	0.726	0.424	0.0673	0.525	0.264	0.337	0.21	0.479	0.667
NCI-H2342	1.22	0.984	0.971	0.963	1.08	–	–	–	–	0.649	0.743	0.725	0.715	0.737	–	–	–	–	–	–
HCC-366	0.952	0.973	0.876	1.02	0.514	0.597	0.31	0.133	0.0897	0.446	0.347	0.319	0.233	0.0907	0.906	0.382	0.232	0.133	0.455	0.92
NCI-H2405	1.11	1.1	1.03	1.02	0.888	0.753	0.698	0.494	0.373	1.07	1.06	1.02	0.958	0.577	0.837	0.455	0.355	0.244	0.737	0.769
Calu-6	0.961	0.95	0.925	0.472	0.109	0.681	0.547	0.322	0.279	–	–	–	–	–	0.457	0.302	0.277	0.207	0.736	0.6
201T	1.09	1.09	0.931	0.558	0.193	1.08	1.12	0.949	0.923	1.01	0.971	0.964	0.909	0.776	1.14	1.27	1.13	1.1	1	1.16
CAL-12T	1.33	1.21	1.08	1.41	0.898	0.997	0.793	0.514	0.34	0.876	0.897	0.746	0.651	0.445	0.867	0.752	0.627	0.497	0.686	1.02
HCC-44	–	–	–	–	–	0.779	0.253	0.462	0.336	1.15	1.14	1.17	1.2	1.05	0.74	0.362	0.408	0.425	0.66	0.78
NCI-H358	0.754	0.393	0.448	0.212	0.0804	0.519	0.383	0.266	0.238	0.79	0.702	0.634	0.233	0.109	–	–	–	–	0.747	–
SW 900	1.1	0.833	0.809	0.627	0.355	–	–	–	–	0.729	0.379	–	0.535	0.317	–	–	–	–	–	–
NCI-H2087	1.28	1.14	1.04	1.29	0.331	0.564	0.487	0.338	0.36	0.72	0.713	0.773	0.723	0.484	0.562	0.458	0.369	0.357	0.683	0.635
COR-L 105	1.07	0.894	1.31	1.09	0.846	0.873	0.717	0.427	0.306	1.04	0.872	0.896	0.774	0.719	0.534	0.437	0.318	0.316	0.763	0.539
LCLC-97TM1	1.02	0.947	0.935	1.02	0.935	0.151	0.14	0.129	0.112	0.757	0.602	0.726	0.622	0.419	0.194	0.172	0.103	0.684	0.172	0.16

Cell Line	relative viability (Halofuginone + Foretinib; first compound 0.001 µM)	relative viability (Halofuginone + Foretinib; first compound 0.003162 µM)	relative viability (Halofuginone + Foretinib; first compound 0.01 µM)	relative viability (Halofuginone + Foretinib; first compound 0.03162 µM)	relative viability (Halofuginone + Foretinib; first compound 0.1 µM)	relative viability (Decitabine + Alpelisib; first compound 0.1265 µM)	relative viability (Decitabine + Alpelisib; first compound 0.4 µM)	relative viability (Decitabine + Alpelisib; first compound 1.265 µM)	relative viability (Decitabine + Alpelisib; first compound 4 µM)	relative viability ([1]; first compound 0.001 µM)	relative viability ([1]; first compound 0.003162 µM)	relative viability ([1]; first compound 0.01 µM)	relative viability ([1]; first compound 0.03162 µM)	relative viability ([1]; first compound 0.1 µM)	relative viability (Decitabine + Navitoclax; first compound 0.1265 µM)	relative viability (Decitabine + Navitoclax; first compound 0.4 µM)	relative viability (Decitabine + Navitoclax; first compound 1.265 µM)	relative viability (Decitabine + Navitoclax; first compound 4 µM)	relative viability (Decitabine + Alpelisib; first compound 0.04 µM)	relative viability (Decitabine + Navitoclax; first compound 0.04 µM)
NCI-H520	0.808	0.798	0.767	0.58	0.424	0.69	0.597	0.369	0.337	0.644	0.711	0.551	0.612	0.309	0.804	0.615	0.819	0.467	0.896	0.941
NCI-H1993	0.911	0.749	0.727	0.772	0.734	0.725	0.629	0.699	0.634	1.1	0.852	0.809	0.0067	0.576	0.993	0.906	0.732	0.87	0.775	0.917
NCI-H1437	1.31	1.26	1.22	1.2	1.21	0.679	0.464	0.246	0.215	0.965	0.886	0.772	0.747	0.501	0.676	0.371	0.271	0.27	0.787	0.768
LC-2-ad	0.928	0.973	0.866	1	0.497	0.742	0.681	0.378	0.304	0.695	0.706	0.69	0.696	0.686	0.325	0.253	0.197	0.148	0.726	0.323
HARA	0.997	0.954	0.934	0.896	0.493	0.749	0.474	0.365	0.249	0.587	0.675	0.512	0.697	0.51	0.66	0.568	0.512	0.399	0.73	0.9
NCI-H650	1.07	0.966	0.965	1.06	0.885	0.538	0.484	0.326	0.29	0.792	0.537	0.5	0.376	0.355	–	–	–	–	0.739	–
NCI-H1975	0.945	1.04	0.796	0.79	0.251	0.357	0.318	0.292	0.275	0.744	0.697	0.441	0.47	0.179	0.317	0.291	0.256	0.256	0.414	0.431
NCI-H522	–	–	–	–	–	–	–	–	–	0.833	0.829	0.926	0.951	0.976	–	–	–	–	–	–
ABC-1	1.28	1.38	1.07	1.13	0.9	0.816	0.786	0.731	0.753	1.11	1.08	1.04	1.24	1.04	–	–	–	–	0.833	–
NCI-H1563	0.985	0.879	0.905	0.662	0.509	0.965	1.02	0.97	0.824	–	–	–	–	–	–	–	–	–	1.06	–
NCI-H1703	0.301	0.295	0.363	0.294	0.337	0.27	0.259	0.246	0.195	–	–	–	–	–	0.642	0.255	0.189	0.253	0.248	0.845
NCI-H661	1.05	1.01	1	0.815	0.6	0.44	0.313	0.246	0.342	0.773	0.803	0.682	0.549	0.491	–	–	–	–	0.432	–
LCLC-103H	0.871	0.768	0.813	0.749	0.848	0.958	0.487	0.858	0.64	0.865	0.807	0.803	0.723	0.719	–	–	–	–	0.888	–
NCI-H1792	–	–	–	–	–	0.765	0.724	0.383	0.323	–	–	–	–	–	0.672	0.625	0.454	0.304	0.619	0.6
NCI-H1648	–	–	–	–	–	–	–	–	–	0.624	0.488	0.522	0.415	0.61	–	–	–	–	–	–
EBC-1	0.106	0.112	0.108	0.104	0.104	0.453	0.421	0.305	0.271	–	–	–	–	–	0.257	0.2	0.178	0.15	0.516	0.21
NCI-H1650	1.33	1.11	0.964	0.601	0.177	–	–	–	–	0.688	0.595	0.522	0.566	0.366	0.482	0.434	0.329	0.295	–	0.546
NCI-H1299	1.13	1.13	1.07	1.09	0.561	1.07	0.985	0.904	0.899	–	–	–	–	–	1.03	1.02	0.898	0.848	1.07	1.04
A549	1.06	0.921	0.925	0.507	0.112	0.56	0.494	0.214	0.165	–	–	–	–	–	0.875	0.331	0.117	0.077	0.647	0.929
